The source made the active and inactive calls. How the calls were made is not given here.

One experiment concerns the target glutathione S-transferase (GST-GSH binding). Kind of experiment: GST–glutathione interaction disruption – biochemical, multiplex beads, flow cytometry, HPSMTB buffer, profiling panel (AID 1324).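 Further: glutathione beads loaded with GST-green fluorescent protein and no fluorescent Bim peptide.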 Particulars: multiplex bead flow cytometry, MCF. Background: Flow cytometry measures light scatter and fluorescence of single cells or particles in a stream.
One may read the EC50 as the concentration needed to bring the measured effect to its halfway point. On to `Cc1nc2ncccn2c1-c1csc(Nc2ccc(O)cc2)n1`, for which the EC50 was 690 nM.

Still in this experiment, the particulars now being: multiplex bead flow cytometry, MCF, stronger effect = higher value, concentration not given here.
In the case of `Cc1cc(NC(=O)CCSc2ccccc2)ccc1Br`, the percent span inhibition result is “inactive”. For the compound `O=C(Nc1ccc2nc(-c3ccco3)c(-c3ccco3)nc2c1)N1CCN(c2ccccn2)CC1`, the percent span inhibition result is “inactive”. On to `Cc1cc(C)cc(NS(=O)(=O)c2ccc3c(c2)c(=O)n(C)c(=O)n3C)c1`, for which the percent span inhibition entry is “inactive”. Consider `COc1ccc(N2CCN(C(CNS(=O)(=O)c3ccc4c(c3)OCCO4)c3ccco3)CC2)cc1` (stereo not drawn), for which the percent span inhibition result is “inactive”. On to `CCN1CCN(c2cc(C)c3cc(NC(=S)N4CC(C)CC(C)C4)ccc3n2)CC1` (stereo not drawn), for which the percent span inhibition result was “inactive”. Still for that read-out and setting: under `CCC(=O)NC(c1ccc(C)cc1)c1cc([N+](=O)[O-])c2cccnc2c1O` (stereo not drawn) stands “inactive”; under `C#CCOCCOCCOCCNc1nc(N2CCN(C(=O)[C@H]([C@@H](C)CC)n3cc([C@@H](N)CC(C)C)nn3)CC2)nc(N2CCN(C(=O)[C@H](Cc3cc4ccccc4[nH]3)n3cc([C@@H](N)Cc4ccc(O)cc4)nn3)CC2)n1`, “inactive”; under `COc1ccc(CN(CC(=O)NC2CCCC2)C(=O)CCC(=O)Nc2cc(C)on2)cc1`, “inactive”. The same measure, in the same setting: next, `COc1cc(N2CCOCC2)ccc1C=C1C(=O)NC(=O)NC1=O`: “inactive”. On the same count and under the same terms, next, `Cc1nc2ccccc2n1CSc1ccccc1`: “inactive”; `CCc1nn2cc(C(=O)c3cc(C)ccc3O)cnc2c1-c1ccc(F)cc1`: “inactive”. As to `CSc1n[nH]c2nc3c(c(=O)n12)C1(CCCC1)Cc1ccccc1-3`, the percent span inhibition entry was “inactive”.

Take `O=C(N/N=C/c1cccc([N+](=O)[O-])c1)c1cccs1`: the percent span inhibition result was “inactive”. As for `COc1ccc2nc(NC(=O)c3ccc(-c4cccc([N+](=O)[O-])c4)o3)sc2c1`, the percent span inhibition result was “inactive”.

In the case of `Cc1ccc(C(=O)NNC(=O)c2ccc3ncccc3c2)cc1`, the percent span inhibition result is “inactive”. Same read-out and setting: under `COc1cccc(-n2nnnc2SCC(=O)Nc2cccc(NC(C)=O)c2)c1` stands “inactive”; under `CCOc1ccccc1NC(=O)CSc1ccc2nnc(-c3cccnc3)n2n1`, “inactive”. In the case of `Cc1ccccc1/C=N/Nc1ccnc2cc(Cl)ccc12`, the percent span inhibition entry is “inactive”.

As for `O=C(OCc1cnc(Cl)s1)c1cccc(Cl)c1Cl`, the percent span inhibition result is “inactive”. On to `CC[n+]1c(/C=C/C=C/N(C(C)=O)c2ccccc2)sc2ccccc21`, for which the percent span inhibition entry is “inactive”. On to `COc1ccc(OCCNC(=O)c2ccccc2OCC(=O)N2CCCCC2)cc1`, for which the percent span inhibition entry was “inactive”.

As for `COc1ccccc1Cn1nnc2c(=O)[nH]c(C3CCN(C(=O)c4ccc(C)cc4)CC3)nc21`, the percent span inhibition entry is “inactive”. For the compound `O=C1N/C(=C/c2cccn2-c2ccccc2)C(=O)N1Cc1ccc(F)cc1`, the percent span inhibition entry is “inactive”. For `N#C/C(=C(/O)CN1CCN(c2ccccc2F)CC1)c1nc(-c2ccccc2)cs1`, the percent span inhibition result is “inactive”.

Take `Cc1ccnc(NS(=O)(=O)c2ccc(NC(=O)c3c(-c4ccccc4Cl)noc3C)cc2)n1`: the percent span inhibition entry was “inactive”. Same read-out and setting: next, `CN(C)c1ccc(Nc2nc(-c3cccnc3)cs2)cc1`: “inactive”. Still for that read-out and setting: next, `CN1N=C(C(=O)N2CCCC(C(=O)c3cccc(C(F)(F)F)c3)C2)CCC1=O` (stereo not drawn): “inactive”; `COc1ccc(CN(C)CC(=O)NC(C)c2ccccc2)c(OC)c1` (stereo not drawn): “inactive”.

As to `COc1ccc(C2=Nc3cccc4cccc(c34)N2)cc1`, the percent span inhibition result is “inactive”. As to `Cc1ccc(/C=C/C2=Cc3c(sc(NC(=O)CSc4n[nH]c(N)n4)c3C#N)C(C)(C)C2)o1`, the percent span inhibition entry is “inactive”. Still for that read-out and setting: next, `Cc1cc(C)c[n+](-c2nc3ccccc3nc2C(=C=[N-])C#N)c1`: “inactive”; `O=C(C[n+]1ccc(-c2nnc3n2CCC3)cc1)c1ccc(Cl)c(Cl)c1`: “inactive”.

These data come from PubChem BioAssay AID1324 (NMMLSC, 2008).
